From ChEMBL document CHEMBL5291721, “A preclinical secondary pharmacology resource illuminates target-adverse drug reaction associations of marketed drugs” (Nat Commun, 2023)

Key:
[1] = biological target: Beta-1 adrenergic receptor (Homo sapiens, UniProt P08588); format: functional, cell-based
Bile acid receptor [2] = biological target: T1, Bile acid receptor (Homo sapiens, UniProt Q96RI1); format: functional
T1 sequence (Q96RI1 whole entry): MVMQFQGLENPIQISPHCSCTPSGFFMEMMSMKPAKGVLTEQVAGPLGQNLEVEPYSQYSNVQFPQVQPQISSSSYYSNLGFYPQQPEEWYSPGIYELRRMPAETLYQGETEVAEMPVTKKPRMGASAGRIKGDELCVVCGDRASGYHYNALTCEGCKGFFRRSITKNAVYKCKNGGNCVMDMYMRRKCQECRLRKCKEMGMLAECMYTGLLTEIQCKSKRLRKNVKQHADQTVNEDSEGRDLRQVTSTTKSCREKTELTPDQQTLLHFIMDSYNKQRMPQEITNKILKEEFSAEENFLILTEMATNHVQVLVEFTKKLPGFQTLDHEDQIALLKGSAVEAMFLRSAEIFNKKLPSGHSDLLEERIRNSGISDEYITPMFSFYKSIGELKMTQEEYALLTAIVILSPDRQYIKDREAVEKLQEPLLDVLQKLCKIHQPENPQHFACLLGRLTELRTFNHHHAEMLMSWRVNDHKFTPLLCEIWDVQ

Bile acid receptor [3] = biological target: T1, Bile acid receptor; format: functional; remark: listed apart in the source
Bile acid receptor [4] = biological target: T1, Bile acid receptor; format: functional; remark: listed apart in the source
[5] = biological target: T2, Peroxisome proliferator-activated receptor alpha (Homo sapiens, UniProt Q07869); format: functional
T2 sequence (Q07869 whole entry): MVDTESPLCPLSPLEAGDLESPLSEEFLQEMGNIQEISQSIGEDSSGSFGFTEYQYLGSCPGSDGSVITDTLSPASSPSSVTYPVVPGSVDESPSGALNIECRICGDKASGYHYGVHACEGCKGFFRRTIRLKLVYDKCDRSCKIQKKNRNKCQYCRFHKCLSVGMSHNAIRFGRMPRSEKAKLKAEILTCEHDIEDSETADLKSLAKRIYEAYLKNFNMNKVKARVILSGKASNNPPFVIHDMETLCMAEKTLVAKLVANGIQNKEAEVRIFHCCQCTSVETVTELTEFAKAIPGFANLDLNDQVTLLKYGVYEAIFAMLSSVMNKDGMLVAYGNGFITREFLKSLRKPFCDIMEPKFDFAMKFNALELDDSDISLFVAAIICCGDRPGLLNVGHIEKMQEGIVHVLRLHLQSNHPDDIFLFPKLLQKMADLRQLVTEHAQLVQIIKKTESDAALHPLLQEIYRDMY

[6] = biological target: T2, Peroxisome proliferator-activated receptor alpha; format: functional; remark: listed apart in the source
[7] = biological target: T3, Retinoic acid receptor gamma (Homo sapiens, UniProt P13631); format: functional, cell-based
T3 sequence (P13631 whole entry): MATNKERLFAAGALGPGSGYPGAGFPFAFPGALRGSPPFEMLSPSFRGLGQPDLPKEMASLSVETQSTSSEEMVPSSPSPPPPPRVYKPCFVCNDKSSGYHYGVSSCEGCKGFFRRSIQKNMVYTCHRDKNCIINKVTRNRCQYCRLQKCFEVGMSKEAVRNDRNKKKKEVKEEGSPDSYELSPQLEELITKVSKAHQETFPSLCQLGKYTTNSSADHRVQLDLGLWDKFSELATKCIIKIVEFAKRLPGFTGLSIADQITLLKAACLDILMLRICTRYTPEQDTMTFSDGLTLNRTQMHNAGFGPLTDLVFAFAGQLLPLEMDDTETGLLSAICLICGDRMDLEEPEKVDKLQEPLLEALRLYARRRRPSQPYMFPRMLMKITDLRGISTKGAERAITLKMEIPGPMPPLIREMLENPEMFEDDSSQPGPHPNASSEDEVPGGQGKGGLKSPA

Androgen receptor = biological target: T4, Androgen receptor (Rattus norvegicus, UniProt P15207)
T4 sequence (P15207 whole entry): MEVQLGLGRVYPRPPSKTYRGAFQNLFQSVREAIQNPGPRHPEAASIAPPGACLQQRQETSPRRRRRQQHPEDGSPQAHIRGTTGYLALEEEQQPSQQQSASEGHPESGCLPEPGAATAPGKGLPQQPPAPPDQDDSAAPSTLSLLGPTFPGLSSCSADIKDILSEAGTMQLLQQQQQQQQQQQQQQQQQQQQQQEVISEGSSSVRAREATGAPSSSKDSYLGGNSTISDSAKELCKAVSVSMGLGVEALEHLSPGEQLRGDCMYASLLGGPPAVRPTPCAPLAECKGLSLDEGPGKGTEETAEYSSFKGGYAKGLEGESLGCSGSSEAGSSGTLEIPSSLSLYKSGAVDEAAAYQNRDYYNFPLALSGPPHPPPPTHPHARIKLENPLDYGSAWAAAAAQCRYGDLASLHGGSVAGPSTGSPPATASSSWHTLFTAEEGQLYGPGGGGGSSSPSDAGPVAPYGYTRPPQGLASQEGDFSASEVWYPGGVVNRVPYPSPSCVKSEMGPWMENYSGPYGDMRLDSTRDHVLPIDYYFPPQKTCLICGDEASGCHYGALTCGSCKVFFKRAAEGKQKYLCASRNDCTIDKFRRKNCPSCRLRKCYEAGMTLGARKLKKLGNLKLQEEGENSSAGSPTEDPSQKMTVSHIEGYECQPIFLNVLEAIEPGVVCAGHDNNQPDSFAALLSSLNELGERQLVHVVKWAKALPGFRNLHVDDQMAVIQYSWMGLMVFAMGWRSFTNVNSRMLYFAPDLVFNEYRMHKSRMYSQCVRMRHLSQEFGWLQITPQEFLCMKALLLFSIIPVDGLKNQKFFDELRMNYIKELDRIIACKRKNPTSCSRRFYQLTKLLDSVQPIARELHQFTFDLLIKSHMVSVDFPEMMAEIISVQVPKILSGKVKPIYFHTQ

[8] = biological target: Gamma-aminobutyric acid type B receptor subunit 1 (Homo sapiens, UniProt Q9UBS5)
Substance-K receptor = biological target: T5, Substance-K receptor (Homo sapiens, UniProt P21452)
T5 sequence (P21452 whole entry): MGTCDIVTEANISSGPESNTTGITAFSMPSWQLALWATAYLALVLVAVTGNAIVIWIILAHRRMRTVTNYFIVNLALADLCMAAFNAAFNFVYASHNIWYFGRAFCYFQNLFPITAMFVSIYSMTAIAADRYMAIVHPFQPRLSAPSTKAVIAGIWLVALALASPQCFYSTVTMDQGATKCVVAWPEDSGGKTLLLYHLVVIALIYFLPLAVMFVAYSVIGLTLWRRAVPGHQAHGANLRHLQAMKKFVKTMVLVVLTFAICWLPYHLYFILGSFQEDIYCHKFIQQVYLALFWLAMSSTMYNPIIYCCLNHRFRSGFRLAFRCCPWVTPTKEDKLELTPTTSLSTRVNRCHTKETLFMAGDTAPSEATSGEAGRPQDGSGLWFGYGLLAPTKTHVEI
Also: assay procedure not described here.

Gamma-aminobutyric acid type B receptor subunit 1, sequence (Q9UBS5 whole entry): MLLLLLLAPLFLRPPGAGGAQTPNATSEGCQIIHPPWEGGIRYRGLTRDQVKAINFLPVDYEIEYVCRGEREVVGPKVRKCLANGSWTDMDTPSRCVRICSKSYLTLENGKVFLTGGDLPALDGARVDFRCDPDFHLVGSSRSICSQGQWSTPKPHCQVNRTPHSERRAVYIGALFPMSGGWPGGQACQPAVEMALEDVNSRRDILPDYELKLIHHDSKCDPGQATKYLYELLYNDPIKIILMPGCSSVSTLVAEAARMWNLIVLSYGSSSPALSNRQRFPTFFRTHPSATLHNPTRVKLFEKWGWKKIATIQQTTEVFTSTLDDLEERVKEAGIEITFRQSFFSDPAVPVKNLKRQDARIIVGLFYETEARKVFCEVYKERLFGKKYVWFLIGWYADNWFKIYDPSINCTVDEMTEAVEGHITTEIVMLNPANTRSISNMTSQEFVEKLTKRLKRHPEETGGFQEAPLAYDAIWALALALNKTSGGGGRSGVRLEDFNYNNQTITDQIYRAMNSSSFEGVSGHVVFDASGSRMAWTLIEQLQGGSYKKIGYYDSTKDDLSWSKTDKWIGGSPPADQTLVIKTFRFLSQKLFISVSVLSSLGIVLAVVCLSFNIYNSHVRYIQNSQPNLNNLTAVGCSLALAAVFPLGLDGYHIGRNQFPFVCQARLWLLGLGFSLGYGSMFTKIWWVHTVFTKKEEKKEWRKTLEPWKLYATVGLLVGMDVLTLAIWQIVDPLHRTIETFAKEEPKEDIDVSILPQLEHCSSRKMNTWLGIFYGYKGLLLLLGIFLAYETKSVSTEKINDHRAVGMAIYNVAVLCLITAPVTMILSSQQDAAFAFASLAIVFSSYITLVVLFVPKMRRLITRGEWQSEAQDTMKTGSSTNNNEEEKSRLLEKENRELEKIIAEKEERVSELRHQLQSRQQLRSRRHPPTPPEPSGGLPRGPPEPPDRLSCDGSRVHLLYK
Beta-1 adrenergic receptor, sequence (P08588 whole entry): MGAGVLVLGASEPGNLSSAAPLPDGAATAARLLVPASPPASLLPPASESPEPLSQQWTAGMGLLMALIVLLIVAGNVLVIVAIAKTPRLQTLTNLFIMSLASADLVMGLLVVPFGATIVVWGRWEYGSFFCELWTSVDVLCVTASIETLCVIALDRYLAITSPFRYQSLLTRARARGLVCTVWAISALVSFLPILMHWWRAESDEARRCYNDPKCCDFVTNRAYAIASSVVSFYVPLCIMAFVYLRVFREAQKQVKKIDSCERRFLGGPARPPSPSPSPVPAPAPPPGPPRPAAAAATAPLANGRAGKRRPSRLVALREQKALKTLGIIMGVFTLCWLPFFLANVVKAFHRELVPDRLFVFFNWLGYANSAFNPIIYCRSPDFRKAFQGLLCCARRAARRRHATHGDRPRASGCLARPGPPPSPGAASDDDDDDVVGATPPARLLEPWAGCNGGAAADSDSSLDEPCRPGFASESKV

**Q.** How did the AC50 [1] turn out when `CC(/C=C1\SC(=S)N(CC(=O)O)C1=O)=C\c1ccccc1` was run?
**A.** > 30 µM

**Q.** And the AC50 (Bile acid receptor [2])?
**A.** > 30 µM

**Q.** And the AC50 (Bile acid receptor [3])?
**A.** 4 µM

**Q.** What about the AC50 (Bile acid receptor [4]) of the same compound?
**A.** > 30 µM

**Q.** What about the AC50 [5] of the same compound?
**A.** > 30 µM

**Q.** And the AC50 [6]?
**A.** > 30 µM

**Q.** What about the AC50 [7] of the same compound?
**A.** > 30 µM

**Q.** With `CC1(C)S[C@@H]2[C@H](NC(=O)[C@H](N)c3ccc(O)cc3)C(=O)N2[C@H]1C(=O)O` [AMOXICILLIN] as the compound, how does the AC50 (Androgen receptor) read?
**A.** > 30 µM

**Q.** And the AC50 [8]?
**A.** > 10 µM

**Q.** And the AC50 (Bile acid receptor [2])?
**A.** > 30 µM

**Q.** What about the AC50 (Bile acid receptor [3]) of the same compound?
**A.** > 30 µM

**Q.** And the AC50 (Bile acid receptor [4])?
**A.** > 30 µM

**Q.** And the AC50 [5]?
**A.** > 30 µM

**Q.** And the AC50 [6]?
**A.** > 30 µM

**Q.** And the AC50 [7]?
**A.** > 30 µM

**Q.** What about the AC50 (Substance-K receptor) of the same compound?
**A.** > 10 µM

**Q.** With `O=C1CN2Cc3c(ccc(Cl)c3Cl)N=C2N1` [ANAGRELIDE] as the compound, how does the AC50 (Androgen receptor) read?
**A.** > 30 µM

**Q.** With `CCc1oc2ccccc2c1C(=O)c1cc(Br)c(O)c(Br)c1` [BENZBROMARONE] as the compound, how does the AC50 (Androgen receptor) read?
**A.** > 10 µM

**Q.** With `[H]/N=C(\N/C(=N/[H])NCCCCCCNC(=N)NC(=N)Nc1ccc(Cl)cc1)Nc1ccc(Cl)cc1` [CHLORHEXIDINE] as the compound, how does the AC50 (Androgen receptor) read?
**A.** > 30 µM

**Q.** How did the AC50 (Substance-K receptor) turn out when `COC(=O)[C@H](c1ccccc1Cl)N1CCc2sccc2C1` [CLOPIDOGREL] was run?
**A.** > 10 µM

**Q.** `Nc1nc(O)c2ncn(COC(CO)CO)c2n1` [GANCICLOVIR] was tested. Which AC50 [1] did it give?
**A.** > 30 µM

**Q.** `Cc1cnc(NC(=O)C2=C(O)c3ccccc3S(=O)(=O)N2C)s1` [MELOXICAM] was tested. Which AC50 [8] did it give?
**A.** > 10 µM

**Q.** What about the AC50 (Substance-K receptor) of the same compound?
**A.** > 10 µM

**Q.** Which AC50 [8] does the source give for `CNC[C@H](O)c1cccc(O)c1` [PHENYLEPHRINE] here?
**A.** > 10 µM

**Q.** `CNC(=O)c1cc(Oc2ccc(NC(=O)Nc3ccc(Cl)c(C(F)(F)F)c3)c(F)c2)ccn1` [REGORAFENIB] was tested. Which AC50 (Bile acid receptor [2]) did it give?
**A.** > 30 µM

**Q.** And the AC50 (Bile acid receptor [3])?
**A.** > 30 µM

**Q.** What about the AC50 (Bile acid receptor [4]) of the same compound?
**A.** 7.2 µM

**Q.** What about the AC50 [5] of the same compound?
**A.** > 30 µM

**Q.** And the AC50 [6]?
**A.** > 30 µM

**Q.** What about the AC50 [7] of the same compound?
**A.** > 30 µM

**Q.** For `CCOc1cc(CC(=O)N[C@@H](CC(C)C)c2ccccc2N2CCCCC2)ccc1C(=O)O` [REPAGLINIDE], which AC50 (Bile acid receptor [2]) is on record?
**A.** > 30 µM

**Q.** What about the AC50 (Bile acid receptor [3]) of the same compound?
**A.** 27 µM

**Q.** What about the AC50 (Bile acid receptor [4]) of the same compound?
**A.** 6.5 µM

**Q.** What about the AC50 [5] of the same compound?
**A.** > 30 µM

**Q.** And the AC50 [6]?
**A.** > 30 µM

**Q.** And the AC50 [7]?
**A.** > 30 µM

**Q.** Which AC50 [1] does the source give for `CC(C)N(CCCCOCC(=O)NS(C)(=O)=O)c1cnc(-c2ccccc2)c(-c2ccccc2)n1` [SELEXIPAG] here?
**A.** > 30 µM

**Q.** What does the source list for `CCCCNc1ccc(C(=O)OCCN(C)C)cc1` [TETRACAINE]?
**A.** AC50 [8]: > 10 µM; AC50 (Substance-K receptor): > 10 µM

**Q.** With `CC1(C)O[C@@H]2[C@@H](CO[C@@]3(COS(N)(=O)=O)OC(C)(C)O[C@@H]23)O1` [TOPIRAMATE] as the compound, how does the AC50 [8] read?
**A.** > 10 µM

**Q.** Which AC50 [1] does the source give for `Cc1cc(CC(=O)O)n(C)c1C(=O)c1ccc(Cl)cc1` [ZOMEPIRAC] here?
**A.** > 30 µM
